Reference: PubChem BioAssay (NCI)
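These data come from cells grown in 96-well plates and exposed to compound for 48 hours at five concentrations. TGI: concentration producing complete growth inhibition.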

What was measured:
Assay in all cases: growth of human tumour cells (NCI), 48 h
[1] = tested on: DMS 114 small cell lung
[2] = tested on: TK-10 renal
[3] = tested on: M14 melanoma
[4] = tested on: A498 renal
[5] = tested on: SR leukemia
[6] = tested on: RPMI-8226 leukemia
[7] = tested on: SN12C renal
[8] = tested on: OVCAR-8 ovarian
[9] = tested on: K-562 leukemia
[10] = tested on: KM12 colon
[11] = tested on: IGROV1 ovarian
[12] = tested on: HCT-116 colon
[13] = tested on: OVCAR-5 ovarian
[14] = tested on: UACC-62 melanoma
[15] = tested on: CCRF-CEM leukemia
[16] = tested on: SF-295 CNS
[17] = tested on: MALME-3M melanoma
[18] = tested on: DLD-1 colon
[19] = tested on: HOP-18 NSCLC
[20] = tested on: UACC-257 melanoma
[21] = tested on: HCT-15 colon
[22] = tested on: OVCAR-4 ovarian
[23] = tested on: NCI-H23 lung
[24] = tested on: SK-OV-3 ovarian
[25] = tested on: SNB-19 CNS
[26] = tested on: COLO 205 colon
[27] = tested on: SF-539 CNS
[28] = tested on: NCI-H460 lung
[29] = tested on: U251 CNS
[30] = tested on: CAKI-1 renal
[31] = tested on: EKVX NSCLC
[32] = tested on: UO-31 renal
[33] = tested on: SNB-78 CNS
[34] = tested on: NCI-H522 lung
[35] = tested on: HT29 colon
[36] = tested on: KM20L2 colon
[37] = tested on: MOLT-4 leukemia
[38] = tested on: HOP-62 NSCLC
[39] = tested on: SF-268 CNS
[40] = tested on: XF 498 CNS
[41] = tested on: DMS 273 small cell lung
[42] = tested on: ACHN renal
[43] = tested on: SNB-75 CNS
[44] = tested on: HL-60(TB) leukemia
[45] = tested on: SK-MEL-28 melanoma
[46] = tested on: M19-MEL melanoma
[47] = tested on: SW-620 colon
[48] = tested on: NCI-H226 lung
[49] = tested on: RXF 393 renal
[50] = tested on: OVCAR-3 ovarian
[51] = tested on: 786-0 renal
[52] = tested on: HCC-2998 colon
[53] = tested on: LXFL 529 NSCLC
[54] = tested on: LOX IMVI melanoma
[55] = tested on: A549 NSCLC
[56] = tested on: HOP-92 NSCLC
[57] = tested on: SK-MEL-5 melanoma
[58] = tested on: RXF-631 renal
[59] = tested on: SK-MEL-2 melanoma

Measured: TGI

O=c1nc(-c2ccccc2)cc(-c2ccccc2O)[nH]1
> 100 µM: [1] | [2] | [3] | [4] | [5] | [6] | [7] | [8] | [9] | [10] | [11] | [12] | [13] | [14] | [15] | [16] | [17] | [18] | [19] | [20] | [21] | [22] | [23] | [24] | [25] | [26] | [27] | [28] | [29] | [30] | [31] | [32] | [33] | [34] | [35] | [36] | [37] | [38] | [39] | [40] | [41] | [42] | [43] | [44] | [45] | [46] | [47] | [48] | [49] | [50] | [51] | [52] | [53] | [54] | [55] | [56]

CCOC(=O)/C(=C/c1cccc(C#N)c1)N(CC)CC
> 100 µM: [1] | [2] | [3] | [4] | [57] | [5] | [6] | [7] | [8] | [9] | [10] | [11] | [12] | [13] | [14] | [15] | [16] | [17] | [18] | [19] | [20] | [21] | [22] | [23] | [24] | [26] | [27] | [28] | [29] | [30] | [31] | [32] | [33] | [34] | [58] | [35] | [37] | [38] | [39] | [59] | [40] | [42] | [43] | [44] | [45] | [46] | [47] | [48] | [51] | [52] | [53] | [54] | [55] | [56]

Cc1cccc(C(C)C)c1NC(=O)C(=O)C(C(=O)c1ccccc1F)C1OC(=O)c2ccccc21 (configuration not stated)
45.9 µM: [43]
71.7 µM: [35]
48.2 µM: [56]
33.6 µM: [34]
21.5 µM: [48]
38 µM: [50]
27.4 µM: [53]
26.9 µM: [17]
57.3 µM: [21]
26.6 µM: [52]
83.9 µM: [28]
99.9 µM: [13]
32.7 µM: [54]
70.5 µM: [30]
64.9 µM: [24]
60.3 µM: [58]
96.6 µM: [31]
27.5 µM: [12] | [49]
50 µM: [10]
44.3 µM: [41]
30.1 µM: [59]
59.7 µM: [8]
46.8 µM: [7]
92.9 µM: [39]
74.2 µM: [22]
38.5 µM: [3]
58.9 µM: [47]
35.8 µM: [38]
45.1 µM: [4]
32.4 µM: [19]
53.7 µM: [45]
27.9 µM: [37]
91.1 µM: [2]
41 µM: [15] | [26]
29 µM: [25]
> 100 µM: [9] | [42] | [55]
77.9 µM: [11]
30.8 µM: [18]
28.5 µM: [57] | [6]
26.4 µM: [46]
36.6 µM: [51]
36.1 µM: [1]
22.4 µM: [14]
40.6 µM: [23]
38.3 µM: [32]
23.3 µM: [40]
37.3 µM: [29]
76.5 µM: [36]
29.4 µM: [20]

CC1=C(C(=O)NNS(=O)(=O)c2ccc(C)cc2)CC(C(=O)NNS(=O)(=O)c2ccc(C)cc2)=C(C)N1
> 100 µM: [1] | [2] | [3] | [5] | [6] | [7] | [8] | [9] | [10] | [11] | [12] | [13] | [16] | [17] | [18] | [19] | [20] | [21] | [22] | [23] | [24] | [25] | [26] | [27] | [28] | [29] | [30] | [31] | [32] | [33] | [34] | [58] | [35] | [36] | [37] | [38] | [39] | [59] | [40] | [42] | [44] | [45] | [46] | [47] | [48] | [49] | [50] | [51] | [52] | [53] | [54] | [55]
47.2 µM: [14]
